Test results as given in US9492508B2, “Parathyroid hormone analogs and uses thereof” (The General Hospital Corporation, priority 2010, dated 2016).
pEC50: −log10 of the molar value. Ends that are not written are not given here.

Legend:
MC3T3-E1 cells [1] = assay: cAMP RIA in intact MC3T3-E1 cells; assay type: cell-based, mouse; settings: 30 min, room temperature, IBMX; for cAMP MC3T3-E1 cells EC50 (Log M): 6 experiments
Outline: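 Intact mouse pre-osteoblastic MC3T3-E1 cells were stimulated with polypeptide. cAMP in HCl lysates was measured by radioimmunoassay. Values are means of six duplicate experiments with fitted curves.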

[2] = Blood Ca++ responses in mice; assay type: in vivo, mice (C57 BL/6); settings: 5 nmol/kg s.c., 4, 6, 8 and 24 hours
Description: Blood Ca^++ responses in mice were also assayed. Mice (C57 BL/6) were injected subcutaneously with either vehicle or the indicated ligand to give a final dose of 5 nmol/kg body weight, and blood was withdrawn via the tail at times after injection and assessed for Ca^++ concentration using a Bayer Rapid Lab model 348 blood analyzer. […] A similar experiment using 10 nmol/kg by intravenous injection was also conducted with similar results (FIGS. 8C and 8D).

MC3T3-E1 cells [3] = assay: cAMP response following ligand wash-out in MC3T3-E1 cells; assay type: cell-based, mouse; settings: 100 nM ligand 5 min, then wash-out; FIGS. 7A, 7B
Description: Cells were treated at room temperature with vehicle or the indicated ligand (100 nM) for five minutes; for each ligand duplicate wells were used to obtain the initial (maximum cAMP values); in these wells, cells were co-incubated with ligand and IBMX. After five minutes of initial treatment, the buffer was removed, and, for the initial wells, the reactions were terminated by addition of 50 mM HCl. In the other wells, the cells were rinsed three times with buffer, and incubated in buffer for varying times, as indicated on the abscissa; after which the buffer was replaced by a buffer containing IBMX, and the cells were incubated for another five minutes. After that, the buffer was removed and the reactions were terminated by addition of 50 mM HCl. The cAMP contents of the HCl lysates were then determined by RIA.

[4] = Hypercalcemic assay in cynomolgus monkeys (serum and urinary calcium and phosphate); assay type: in vivo, cynomolgus monkey; settings: for serum calcium: 0.25 nmol/kg intravenous, FIG. 12A; for serum calcium, subcutaneous two doses: 2.5 or 10 nmol/kg subcutaneous, FIG. 15A
Description: The effects of the SP-PTH (SEQ ID NO:11) and SP-PTH-AAK (SEQ ID NO:4) (“SP-AAK”) on serum and urinary calcium and phosphate levels were tested in cynomolgus monkeys. Briefly, three- or four-year-old, male cynomolgus monkeys (HAMRI Co., Ltd., Ibaraki, Japan) were measured for their body weight. Blood was collected into tubes. Monkeys received intravenous or subcutaneous administration of each polypeptide at a dose of 0.3 ml/kg. Polypeptide concentrations in stock solution were adjusted by dilution with 25 mmol/L phosphate-citrate buffer/100 mmol/L NaCl/0.05% Tween 80 (pH.5.0) (PC-buffer). All polypeptides were allowed to stand on ice immediately before administration. Polypeptides were administered to groups of three monkeys each respectively. At 1, 2, 4, and 8 hours after administration, blood was collected by saphenous vein to monitor the time course of calcium and phosphorus levels (FIG. 11A).
Similar experiments were performed using subcutaneous injection of the polypeptides using two different doses (2.5 nmol/kg or 10 nmol/kg; FIG. 14). […] Reductions in serum inorganic phosphate were also observed (FIGS. 15B and 15C). […] Urine calcium and phosphate data were also collected. Urine was collected in 24-hour intervals prior to injection (T=0) and at times thereafter and assessed for Ca (FIGS. 15E and 15G), Pi (FIGS. 15F and 15H) and creatinine; [Ca] and [PI] are expressed as ratios to [creatinine]. FIGS. 15G and 15H present the change from the pre-injection values. Data are means±s.e.m.; n=3/group.

human PTHR1 (R0) = target: T1, human PTHR1 (R0) (Homo sapiens, UniProt Q03431); assay: Competition binding, R0 conformation of human PTHR1 (COS-7 membranes, 125I-PTH(1-34) tracer, GTPγS); settings: for R0 binding at human PTH receptor as compared to PTH(1-34): FIG. 5A
T1 construct: expressed in transfected cells; host or cells: COS-7 cells (membranes)
T1 sequence (Q03431 27-593): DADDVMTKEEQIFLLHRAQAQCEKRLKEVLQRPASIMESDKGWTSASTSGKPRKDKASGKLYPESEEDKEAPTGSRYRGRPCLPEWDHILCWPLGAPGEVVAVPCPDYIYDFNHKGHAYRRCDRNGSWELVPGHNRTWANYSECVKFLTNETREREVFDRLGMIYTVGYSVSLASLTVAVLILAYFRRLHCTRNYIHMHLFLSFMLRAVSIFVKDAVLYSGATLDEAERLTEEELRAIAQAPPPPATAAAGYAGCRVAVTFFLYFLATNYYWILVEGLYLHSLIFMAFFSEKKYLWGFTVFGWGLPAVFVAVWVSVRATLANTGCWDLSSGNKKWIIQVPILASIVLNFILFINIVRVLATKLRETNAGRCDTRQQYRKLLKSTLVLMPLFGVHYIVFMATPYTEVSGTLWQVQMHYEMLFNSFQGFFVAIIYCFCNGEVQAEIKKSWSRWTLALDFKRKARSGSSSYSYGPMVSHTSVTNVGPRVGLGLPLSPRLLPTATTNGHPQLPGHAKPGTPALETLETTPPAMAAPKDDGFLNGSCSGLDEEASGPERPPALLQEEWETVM
Description: Briefly, the R^0 form of the receptor can be favored by addition of the non-hydrolyzable nucleotide analog GTPγS. The RG form can be favored, for example, by co-transfection of cells with a negative dominant Gαs subunit. […] Data are means of four experiments, each performed in duplicate. Curves were fit to the data using Graph-Pad Prism 4.0.
Here, competition binding assays for the R^0 and RG PTHR1 conformation were performed in membranes prepared from transfected COS-7 cells, as described by Dean et al., Mol Endocrinol 22:156-66, 2008. Data are means of three experiments, each performed in duplicate. Curves were fit to the data using Graph-Pad Prism 4.0.

pEC50 (MC3T3-E1 cells [1])	cAMP MC3T3-E1 cells EC50 (Log M) (MC3T3-E1 cells [1])	R0 binding at human PTH receptor as compared to PTH(1-34) (human PTHR1 (R0))	IC50 (human PTHR1 (R0); R0 conformation, mean of 3 experiments, read-out: Binding human PTHR1 IC50 (Log M) R0 (converted))	Substance	cAMP MC3T3-E1 cells Emax (pmole/well) (MC3T3-E1 cells [1])	blood calcium levels at later time points vs PTH(1-34) or vehicle [2]	cAMP-stimulating activity after ligand wash-out (MC3T3-E1 cells [3])	serum calcium [4]	serum calcium, subcutaneous two doses [4]
10.36	−10.4 ± 0.1 Log M	enhanced R^0 binding	1.38 nM	AVAEIQLMHQRAKWIQDLRRRFFLHHLIAEIHTAEI-OH [SP-PTH, [Ala^1,3,12,Gln^10,Arg^11,Trp^14]PTH(1-14)/PTHrP(15-36)]	60.6 ± 12.4 pmole/well	increased	maintained cAMP-stimulating activity for longer periods of time than PTH(1-34)	increased serum calcium	increases in serum calcium were observed in a dose dependent manner
11.20	−11.2 ± 0.2 Log M	enhanced R^0 binding	–	AVAEIQLMHQRAKWIQDARRRAFLHKLIAEIHTAEI-OH [SP-PTH-AAK, [Ala^1,3,12,18,22,Gln^10,Arg^11,Trp^14,Lys^26]PTH(1-14)/PTHrP(15-36)]	62.3 ± 13.6 pmole/well	increased	maintained cAMP-stimulating activity for longer periods of time than PTH(1-34)	increased serum calcium	increases in serum calcium were observed in a dose dependent manner
